In patent publication US20160185774A1, “Anti-Infective Compounds” (priority 2013, published 2016):
Converted amounts (≈) assume the structure as drawn.

Tests used:
M. tuberculosis = assay: microbe, parasite or virus in culture; type: cell-based; conditions: Mycobacterium tuberculosis, 120 h; read-out: QUM (MIC80)

In the case of CCc1nc2ccc(Cl)cn2c1C(=O)NCc1cccc(N2CCC(c3ccc(OC(F)(F)F)cc3)CC2)c1 [Compound 249], the melting point is reported as 135.5 to 136.4 °C and the MIC80 (M. tuberculosis) is reported as > 20 µM.
With CCc1nc2ccc(Cl)cn2c1C(=O)NCc1cccc(CC(=O)Nc2ccc(F)cc2)c1 [Compound 250] the melting point was > 198.8 °C (dec.) and the MIC80 (M. tuberculosis) was > 20 µM.
With CCc1nc2ccc(Cl)cn2c1C(=O)NCc1cccc(N2CCN(c3ccc(OC(F)(F)F)cc3)CC2)c1 [Compound 251] the melting point was > 168 °C (dec.) and the MIC80 (M. tuberculosis) was 1 to 20 µM (≈ 0.558 to 11.2 µg/mL).
In the case of CCc1nc2ccc(Cl)cn2c1C(=O)NCc1ccc(CC2CCOCC2)cc1 [Compound 253], the melting point is reported as 132.2 to 133 °C and the MIC80 (M. tuberculosis) is reported as < 1 µM.
In the case of CCc1nc2cc(Cl)ccn2c1C(=O)NCc1ccc(CC2CCOCC2)cc1 [Compound 254], the melting point is reported as > 125.9 °C (dec.) and the MIC80 (M. tuberculosis) is reported as < 1 µM.
With CCc1nc2ccc(Cl)cn2c1C(=O)NCc1cccc(N2CCC(Oc3ccc(OC(F)(F)F)cc3)CC2)c1 [Compound 255] the melting point was 126.3 to 127.2 °C and the MIC80 (M. tuberculosis) was > 20 µM.
For CCc1nc2ccc(Cl)cn2c1C(=O)NCc1cc2cc(Cl)ccc2s1 [Compound 256], the melting point was > 220 °C and the MIC80 (M. tuberculosis) was < 1 µM.
For CCc1nc2ccccn2c1C(=O)NCc1ccc(C2CCOCC2)cc1 [Compound 257], the melting point was > 133.7 °C (dec.) and the MIC80 (M. tuberculosis) was < 1 µM.
With CCc1nc2ccc(Cl)cn2c1C(=O)NCc1ccc(C2CCOCC2)cc1 [Compound 258] the melting point was > 195.5 °C (dec.) and the MIC80 (M. tuberculosis) was < 1 µM.
With CCc1nc2cc(Cl)ccn2c1C(=O)NCc1ccc(C2CCOCC2)cc1 [Compound 259] the melting point was > 156.6 °C (dec.) and the MIC80 (M. tuberculosis) was < 1 µM.
With CCc1nc2ccc(Cl)cn2c1C(=O)NCc1cc2cc(Cl)ccc2o1 [Compound 261] the melting point was 223.5 to 225.6 °C and the MIC80 (M. tuberculosis) was < 1 µM.
For CCc1nc2ccc(Cl)cn2c1C(=O)NCc1nc2ccc(Cl)cc2n1C [Compound 262], the melting point was > 220 °C and the MIC80 (M. tuberculosis) was > 20 µM.
For CCc1nc2ccc(Cl)cn2c1C(=O)NCc1nc2cc(Cl)ccc2n1C [Compound 263], the melting point was > 220 °C and the MIC80 (M. tuberculosis) was > 20 µM.
CCc1nc2ccc(Cl)cn2c1C(=O)NCc1nc2ccc(Cl)cc2o1 [Compound 264] gave a melting point of 201.1 to 201.8 °C and an MIC80 (M. tuberculosis) of 1 to 20 µM (≈ 0.389 to 7.78 µg/mL).
For CCc1nc2cc(Cl)ccn2c1C(=O)NCc1nc2cc(-c3ccc(OC(F)(F)F)cc3)ccc2o1 [Compound 265], the melting point was > 220 °C and the MIC80 (M. tuberculosis) was 1 to 20 µM (≈ 0.515 to 10.3 µg/mL).
For CCc1nc2ccc(Cl)cn2c1C(=O)NCc1nc2ccc(Cl)cc2s1 [Compound 266], the melting point was > 220 °C and the MIC80 (M. tuberculosis) was 1 to 20 µM (≈ 0.405 to 8.11 µg/mL).
With CCc1nc2ccc(F)cn2c1C(=O)NCc1ccc(N2CCC(c3ccc(OC(F)(F)F)cc3)CC2)cc1 [Compound 267] the melting point was > 167.9 °C (dec.) and the MIC80 (M. tuberculosis) was < 1 µM.
In the case of CCc1nc2c(F)cccn2c1C(=O)NCc1ccc(N2CCC(c3ccc(OC(F)(F)F)cc3)CC2)cc1 [Compound 268], the melting point is reported as > 177.7 °C (dec.) and the MIC80 (M. tuberculosis) is reported as < 1 µM.
In the case of CCc1nc2cc(Cl)ccn2c1C(=O)NCc1nc2ccc(-c3ccc(OC(F)(F)F)cc3)cc2o1 [Compound 269], the melting point is reported as > 220 °C and the MIC80 (M. tuberculosis) is reported as < 1 µM.
In the case of CCc1nc2cc(Cl)ccn2c1C(=O)NCc1ccc(N2CC(Cc3ccc(F)cc3)OC2=O)cc1 (centres unmarked) [Compound 270], the melting point is reported as > 96.9 °C (dec.) and the MIC80 (M. tuberculosis) is reported as < 1 µM.
In the case of CCc1nc2cc(Cl)ccn2c1C(=O)NCc1ccc(N2CC(COc3ccc(F)cc3)OC2=O)cc1 (centres unmarked) [Compound 271], the melting point is reported as > 97.1 °C and the MIC80 (M. tuberculosis) is reported as 1 to 20 µM (≈ 0.523 to 10.5 µg/mL).
For CCc1nc2ccc(Cl)cn2c1C(=O)NCc1ccc(CN2CCOC2=O)cc1 [Compound 282], the melting point was 179 °C and the MIC80 (M. tuberculosis) was 1 to 20 µM (≈ 0.413 to 8.26 µg/mL).
With CCc1nc2cc(Cl)ccn2c1C(=O)NCc1ccc(CN2CCOC2=O)cc1 [Compound 283] the melting point was 172 °C and the MIC80 (M. tuberculosis) was 1 to 20 µM (≈ 0.413 to 8.26 µg/mL).
For CCc1nc2ccc(Cl)cn2c1C(=O)NCc1ccc(CN2CCOCC2)cc1 [Compound 284], the melting point was 133 °C and the MIC80 (M. tuberculosis) was < 1 µM.
For CCc1nc2cc(Cl)ccn2c1C(=O)NCc1ccc(CN2CCOCC2)cc1 [Compound 285], the melting point was 107 °C and the MIC80 (M. tuberculosis) was < 1 µM.
